Results: patent US5356898A, “Substituted 4,6-di-tertiary-butyl 5-hydroxy-pyrimidines” (Warner-Lambert Company, priority 1993, dated 1994)

Legend:
[1] = tested on: 5-lipoxygenase; experiment: ARBL whole cell 5-lipoxygenase assay (LTB4 formation in RBL-1 cells, RIA); type: cell-based, rat; conditions: @ 10 μM; inhibition of LTB4 formation, RBL-1 cells stimulated with calcium ionophore A23187
Protocol: (§1) ARBL/ARBC Whole Cell 5-Lipoxygenase and Cyclooxygenase Assays The rat basophilic leukemia cell line (RBL-1) was obtained from the American Type Culture Collection (Rockville, Md.). Radioimmunoassay (RIA) kits of LTB4 and PGF2.sbsb.α were obtained from Amersham (Arlington Heights, Ill.) and Seragen (Boston, Mass.), respectively. RBL-1 cells are grown in suspension culture in Eagle's minimum essential medium supplemented with 12% fetal bovine serum at 37° C. in an incubator supplied with air-5% carbon dioxide. Cells are harvested by centrifugation. They are washed with cold phosphate buffered saline pH 7.4 (PBS; NaCl, 7.1 g; Na2 HPO4, 1.15 g; KH2 PO4, 0.2 g; and KCl, 0.2 g/l). Cells are finally suspended in PBS containing 1.0 mM calcium at a density of 2×10^6 cells/mi. Cells are incubated with and without test agent (in DMSO) (1% DMSO is without effect on arachidonic acid metabolism) for ten minutes at room temperature. Calcium ionophore A23187 (5 μM) is added and cells are incubated for seven minutes at 37° C. The reaction is stopped by chilling the tubes on ice for ten minutes. Cells are separated by centrifugation and the supernatant is stored at -20° Aliquots (100 μl) are analyzed for LTB4 and PGF2.sbsb.α using radioimmunoassay kits as provided by the supplier. […]

[2] = tested on: cyclooxygenase; experiment: ARBC whole cell cyclooxygenase assay (PGF2α formation in RBL-1 cells, RIA); type: cell-based, rat; conditions: @ 10 μM; inhibition of PGF2α formation, RBL-1 cells stimulated with calcium ionophore A23187
Protocol: as §1

Structure (SMILES)	ARBL [1] [%]	ARBC [2] [%]
CSc1nnc(-c2nc(C(C)(C)C)c(O)c(C(C)(C)C)n2)s1 [Example 13, 5-[4,6-Bis(1,1-dimethylethyl)-5-hydroxy-2-pyrimidinyl]-2-thiomethoxy-1,3,4-3H-thiadiazole]	93	85
CC(C)(C)c1nc(C#N)nc(C(C)(C)C)c1O [Example 19, 4,6-Bis.(1,1-dimethylethyl)-5-hydroxy-2-pyrimidine carbonitrile]	70	45
